# Results: US20250197409A1, “BIFUNCTIONAL COMPOUND AND PHARMACEUTICAL COMPOSITION COMPRISING THE BIFUNCTIONAL COMPOUND, AND METHOD FOR TREATING ANDROGEN RECEPTOR RELATED DISEASE BY USING THE SAME” (ANHORN MEDICINES CO., LTD., priority 2022, published 2025)
# Where two headings read alike, the source gives them in different places.
# Target: T1, androgen receptor (Homo sapiens, UniProt P10275, T878A)
# T1 construct: host or cells: LNCaP.FGC
# Assay: Androgen receptor degradation assay using Western blot analysis
# Type: cell-based
# Protocol: Cells not treated with any of the above-mentioned compounds are used as a negative control.
# The internal loading control GAPDH was detected using a mouse monoclonal antibody (1:5000) (GTX627408, GeneTex International Corp., HsinChu City, Taiwan R.O.C.) and a goat anti-mouse HRP-conjugated secondary antibody (1:5000 dilution) (C04001, Croyez Bioscience Co., Ltd., Taipei City, Taiwan R.O.C.).
# AR remaining percentage was determined by the intensity difference of AR signals (each was normalized by the corresponding internal loading control GAPDH) between the protein samples from the untreated cells (100%) and those from the treated cells. “Cpd. #” indicates the compound number hereinabove.
# In addition, several compounds were selected to prepare a treatment stock solutions at 100 nM in RPMI medium. The treatment stock solutions were separately serially diluted (10×) with RPMI medium for treating LNCaP.FGC cells seeded with 2×10^5 cells per well in 24-well tissue culture plates. A calibration curve was determined by the serial diluted samples for each compound, and the concentration needed for 50% AR degradation (AR DC50) for each compound was calculated.
# [1] = 24 h, read-out: Androgen Receptor Remaining (%), LNCaP.FGC cells, 100 nM, 24 hr, normalized to GAPDH, untreated cells = 100%
# [2] = read-out: AR DC50 (concentration needed for 50% AR degradation); LNCaP.FGC cells, serial 10x dilutions from 100 nM
# [3] = 24 h, LNCaP.FGC cells, 100 nM, 24 hr, normalized to GAPDH, untreated cells = 100%; read-out: Androgen Receptor Remaining (%)
# [4] = LNCaP.FGC cells, serial 10x dilutions from 100 nM; read-out: AR DC50 (concentration needed for 50% AR degradation)
# T1 sequence (P10275 whole entry T878A): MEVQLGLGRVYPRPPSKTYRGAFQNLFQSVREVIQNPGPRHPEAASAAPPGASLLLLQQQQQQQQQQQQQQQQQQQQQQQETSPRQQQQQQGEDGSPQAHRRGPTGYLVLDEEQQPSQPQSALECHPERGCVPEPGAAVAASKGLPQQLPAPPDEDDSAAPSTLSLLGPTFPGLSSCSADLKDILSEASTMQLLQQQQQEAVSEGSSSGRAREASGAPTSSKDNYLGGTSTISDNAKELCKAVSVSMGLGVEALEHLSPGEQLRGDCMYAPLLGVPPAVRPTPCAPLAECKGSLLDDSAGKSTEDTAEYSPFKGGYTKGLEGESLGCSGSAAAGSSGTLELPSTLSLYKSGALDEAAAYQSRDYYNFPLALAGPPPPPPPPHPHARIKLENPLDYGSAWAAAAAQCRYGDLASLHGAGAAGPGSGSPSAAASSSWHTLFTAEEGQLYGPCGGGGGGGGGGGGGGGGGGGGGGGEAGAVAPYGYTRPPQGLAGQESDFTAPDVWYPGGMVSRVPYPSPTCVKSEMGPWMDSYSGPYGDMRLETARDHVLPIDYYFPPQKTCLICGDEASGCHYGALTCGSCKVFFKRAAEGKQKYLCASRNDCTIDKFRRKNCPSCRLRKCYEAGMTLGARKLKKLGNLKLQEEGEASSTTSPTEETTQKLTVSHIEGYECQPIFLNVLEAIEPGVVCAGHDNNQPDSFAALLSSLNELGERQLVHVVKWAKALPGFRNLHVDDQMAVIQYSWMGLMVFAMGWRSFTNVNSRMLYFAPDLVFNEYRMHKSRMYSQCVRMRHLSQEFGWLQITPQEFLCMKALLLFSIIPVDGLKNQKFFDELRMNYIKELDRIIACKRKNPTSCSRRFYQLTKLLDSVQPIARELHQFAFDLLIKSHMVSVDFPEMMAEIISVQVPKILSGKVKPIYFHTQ
# T1 sequence (Q96SW2 whole entry partner): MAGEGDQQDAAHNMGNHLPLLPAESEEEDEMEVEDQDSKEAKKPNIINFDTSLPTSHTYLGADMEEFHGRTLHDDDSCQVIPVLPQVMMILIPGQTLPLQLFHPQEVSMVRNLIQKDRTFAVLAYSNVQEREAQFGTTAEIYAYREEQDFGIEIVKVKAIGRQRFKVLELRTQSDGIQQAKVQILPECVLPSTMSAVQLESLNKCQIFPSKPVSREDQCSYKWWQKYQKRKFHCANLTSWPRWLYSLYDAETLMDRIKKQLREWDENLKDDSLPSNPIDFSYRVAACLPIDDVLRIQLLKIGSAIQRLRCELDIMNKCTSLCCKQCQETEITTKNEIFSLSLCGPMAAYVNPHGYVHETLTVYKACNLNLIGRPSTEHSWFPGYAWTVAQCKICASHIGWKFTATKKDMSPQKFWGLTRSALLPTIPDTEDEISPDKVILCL
SMILES,remaining activity at 0.1 µM [1],DC50 [2],also measured
CCn1c2c(c3ccc(OCC(=O)NCC4CCN(c5ccc(C(=O)N[C@H]6CC[C@H](N(C)c7ccc(C#N)c(Cl)c7)CC6)nn5)CC4)cc31)C(=O)N(C1CCC(=O)C(CO)C1=O)C2=O (stereo partly shown) [Compound 141],49%,25 to 100 nM,
Cn1c2c(c3ccc(OCCCN4CCCN(c5ccc(C(=O)N[C@H]6CC[C@H](Oc7ccc(C#N)c(Cl)c7)CC6)nn5)CC4)cc31)C(=O)N(C1CCC(=O)NC1=O)C2=O (stereo partly shown) [Compound 87],,,remaining activity at 0.1 µM [3]: 21%; DC50 [4]: 25 to 100 nM
Cn1c2c(c3ccc(OCC4CCN(c5ccc(C(=O)N[C@H]6CC[C@H](Oc7ccc(C#N)c(Cl)c7)CC6)cn5)CC4)cc31)C(=O)N(C1CCC(=O)N(CO)C1=O)C2=O (stereo partly shown) [Compound 34],,,remaining activity at 0.1 µM [3]: 75%
Cn1c2c(c3ccc(OC4CCN(CC5CCN(c6ncc(C(=O)N[C@H]7CC[C@H](Oc8ccc(C#N)c(Cl)c8)CC7)cn6)CC5)CC4)cc31)C(=O)N(C1CCC(=O)NC1=O)C2=O (stereo partly shown) [Compound 28],,,DC50 [4]: 25 to 100 nM
CCn1c2c(c3ccc(OCCCN4CCN(c5ccc(C(=O)N[C@H]6C(C)(C)[C@H](Oc7ccc(C#N)c(Cl)c7)C6(C)C)nn5)CC4)cc31)C(=O)N(C1CCC(=O)NC1=O)C2=O (stereo partly shown) [Compound 37],55%,,
CCn1c2c(c3ccc(OCCN4CCN(c5cnc(C(=O)N[C@H]6CC[C@H](Oc7ccc(C#N)c(Cl)c7)CC6)cn5)CC4)cc31)C(=O)N(C1CCC(=O)NC1=O)C2=O (stereo partly shown) [Compound 62],65%,,
Cn1c2c(c3ccc(NC(=O)CN4CCN(c5ccc(C(=O)N[C@H]6CC[C@H](Oc7ccc(C#N)c(Cl)c7)CC6)nn5)CC4)cc31)C(=O)N(C1CCC(=O)NC1=O)C2=O (stereo partly shown) [Compound 41],,,remaining activity at 0.1 µM [3]: 81%
CCn1c2c(c3ccc(OC(C)CCN4CCN(c5ccc(C(=O)N[C@H]6CC[C@H](Oc7ccc(C#N)c(Cl)c7)CC6)nn5)CC4)cc31)C(=O)N(C1CCC(=O)NC1=O)C2=O (stereo partly shown) [Compound 209],,10 to 25 nM,
CCn1c2c(c3ccc(OCCN4CCN(c5ccc(C(=O)N[C@H]6CC[C@H](N(C)c7ccc(C#N)c(Cl)c7)CC6)nn5)CC4)cc31)C(=O)N(C1CCC(=O)NC1=O)C2=O (stereo partly shown) [Compound 79],60%,,
CCn1c2c(c3ccc(OCCN4CCC(c5ccc(C(=O)N[C@H]6CC[C@H](Oc7ccc(C#N)c(Cl)c7)CC6)nn5)CC4)cc31)C(=O)N(C1CCC(=O)NC1=O)C2=O (stereo partly shown) [Compound 206],,10 to 25 nM,
CC1(C)[C@H](NC(=O)c2ccc(N3CCN(CCCOc4ccc5c6c(sc5c4)C(=O)N(C4CCC(=O)NC4=O)C6=O)CC3)cn2)C(C)(C)[C@H]1Oc1ccc(C#N)c(Cl)c1 (stereo partly shown) [Compound 14],,,remaining activity at 0.1 µM [3]: 70%
CCn1c2c(c3ccc(OCC(=O)N4CC5(CCN(c6ccc(C(=O)N[C@H]7CC[C@H](Oc8ccc(C#N)c(Cl)c8)CC7)nn6)CC5)C4)cc31)C(=O)N(C1CCC(=O)N(CO)C1=O)C2=O (stereo partly shown) [Compound 126],58%,,
CCn1c2c(c3ccc(OCC(=O)N4CC5(CCN(c6ccc(C(=O)N[C@H]7CC[C@H](N(C)c8ccc(C#N)c(Cl)c8)CC7)nn6)C5)C4)cc31)C(=O)N(C1CCC(=O)N(CO)C1=O)C2=O (stereo partly shown) [Compound 145],62%,,
CCn1c2c(c3ccc(OCCOCCN4CCN(c5ccc(C(=O)N[C@H]6CC[C@H](N(C)c7ccc(C#N)c(Cl)c7)CC6)nn5)CC4)cc31)C(=O)N(C1CCC(=O)NC1=O)C2=O (stereo partly shown) [Compound 114],21%,10 to 25 nM,
CCn1c2c(c3ccc(OCCOC4CCN(c5ccc(C(=O)N[C@H]6CC[C@H](N(C)c7ccc(C#N)c(Cl)c7)CC6)nn5)CC4)cc31)C(=O)N(C1CCC(=O)NC1=O)C2=O (stereo partly shown) [Compound 154],33%,10 to 25 nM,
CCn1c2c(c3ccc(OCCCN4CCN(c5ccc(C(=O)N[C@H]6CC[C@H](Oc7ccc(C#N)c(Cl)c7)CC6)nn5)CC4)cc31)C(=O)N([C@H]1CCC(=O)NC1=O)C2=O [Compound 63],,10 to 25 nM,
Cn1c2c(c3ccc(OCCN4CCC5(CC4)CCN(c4ccc(C(=O)N[C@H]6CC[C@H](N(C)c7ccc(C#N)c(Cl)c7)CC6)nn4)CC5)cc31)C(=O)N(C1CCC(=O)NC1=O)C2=O (stereo partly shown) [Compound 199],,10 to 25 nM,
CCn1c2c(c3ccc(OCCN4CCC5(CC4)CN(c4ccc(C(=O)N[C@H]6CC[C@H](N(C)c7ccc(C#N)c(Cl)c7)CC6)nn4)C5)cc31)C(=O)N(C1CCC(=O)NC1=O)C2=O (stereo partly shown) [Compound 106],119%,,
CCn1c2c(c3ccc(OCCOC4CCN(c5ccc(C(=O)N[C@H]6CC[C@H](Oc7ccc(C#N)c(Cl)c7)CC6)nn5)CC4)cc31)C(=O)N(C1CCC(=O)NC1=O)C2=O (stereo partly shown) [Compound 153],109%,10 to 25 nM,

SMILES,remaining activity at 0.1 µM [1],DC50 [2],also measured
CCn1c2c(c3ccc(OCCN4CC5(CCN(c6ccc(C(=O)N[C@H]7CC[C@H](Oc8ccc(C#N)c(Cl)c8)CC7)nn6)CC5)C4)cc31)C(=O)N(C1CCC(=O)NC1=O)C2=O (stereo partly shown) [Compound 80],22%,10 to 25 nM,
CCn1c2c(c3ccc(OCC(=O)N4CCN(c5ccc(C(=O)N[C@H]6CC[C@H](Oc7ccc(C#N)c(Cl)c7)CC6)nn5)CC4)cc31)C(=O)N(C1CCC(=O)N(CO)C1=O)C2=O (stereo partly shown) [Compound 120],48%,25 to 100 nM,
N#Cc1ccc(O[C@H]2CC[C@H](NC(=O)c3ccc(N4CC5(CCN(CCOc6ccc7c8c(n(CC(F)F)c7c6)C(=O)N(C6CCC(=O)NC6=O)C8=O)CC5)C4)nn3)CC2)cc1Cl (stereo partly shown) [Compound 103],52%,,
CCn1c2c(c3ccc(OCCCCOC4CCN(c5ccc(C(=O)N[C@H]6CC[C@H](Oc7ccc(C#N)c(Cl)c7)CC6)nn5)CC4)cc31)C(=O)N(C1CCC(=O)NC1=O)C2=O (stereo partly shown) [Compound 185],,25 to 100 nM,
Cn1c2c(c3ccc(OC4CCN(CC5CN(c6ccc(C(=O)N[C@H]7CC[C@H](Oc8ccc(C#N)c(Cl)c8)CC7)nn6)C5)CC4)cc31)C(=O)N(C1CCC(=O)NC1=O)C2=O (stereo partly shown) [Compound 217],,,DC50 [4]: 10 to 25 nM
CCn1c2c(c3ccc(OCCCN4CCC(c5ncc(C(=O)N[C@H]6CC[C@H](Oc7ccc(C#N)c(Cl)c7)CC6)cn5)CC4)cc31)C(=O)N(C1CCC(=O)NC1=O)C2=O (stereo partly shown) [Compound 38],,25 to 100 nM,
CCn1c2c(c3ccc(OCCCN4CCN(c5ccc(C(=O)N[C@H]6C(C)(C)[C@H](Oc7ccc(C#N)c(Cl)c7)C6(C)C)cc5)CC4)cc31)C(=O)N(C1CCC(=O)NC1=O)C2=O (stereo partly shown) [Compound 21],92%,,
CCn1c2c(c3ccc(OC4CCN(CC5CCN(c6ccc(C(=O)N[C@H]7CC[C@H](Oc8ccc(C#N)c(Cl)c8)CC7)nn6)CC5)CC4)cc31)C(=O)N(C1CCC(=O)NC1=O)C2=O (stereo partly shown) [Compound 203],,< 10 nM,
Cn1c2c(c3ccc(OCCCN4CCN(c5ccc(C(=O)N[C@H]6C(C)(C)[C@H](Oc7ccc(C#N)c(Cl)c7)C6(C)C)cc5)CC4)cc31)C(=O)N(C1CCC(=O)NC1=O)C2=O (stereo partly shown) [Compound 12],,,remaining activity at 0.1 µM [3]: 42%; DC50 [4]: 25 to 100 nM
CC[C@H]1CN(CCCOc2ccc3c4c(n(CC)c3c2)C(=O)N(C2CCC(=O)NC2=O)C4=O)CCN1c1ccc(C(=O)N[C@H]2CC[C@H](Oc3ccc(C#N)c(Cl)c3)CC2)nn1 (stereo partly shown) [Compound 60],57%,,
Cn1c2c(c3ccc(OC4CCN(CC5CCN(c6ccc(C(=O)N[C@H]7CC[C@H](Oc8ccc(C#N)c(Cl)c8)CC7)nn6)CC5)CC4)cc31)C(=O)N(C1CCC(=O)NC1=O)C2=O (stereo partly shown) [Compound 215],,,DC50 [4]: 10 to 25 nM
N#Cc1ccc(O[C@H]2CC[C@H](NC(=O)c3ccc(N4CCN(CCCOc5ccc6c7c([nH]c6c5)C(=O)N(C5CCC(=O)NC5=O)C7=O)CC4)nn3)CC2)cc1Cl (stereo partly shown) [Compound 86],,,remaining activity at 0.1 µM [3]: 20%; DC50 [4]: 25 to 100 nM
CCn1c2c(c3ccc(OCCN4CCN(c5ccc(C(=O)N[C@H]6C(C)(C)[C@H](Oc7ccc(C#N)c(Cl)c7)C6(C)C)cc5)CC4)cc31)C(=O)N(C1CCC(=O)NC1=O)C2=O (stereo partly shown) [Compound 30],56%,,
CN(c1ccc(C#N)c(Cl)c1)[C@H]1CC[C@H](NC(=O)c2ccc(N3CCN(CCCOc4ccc5c6c(n(CC(F)F)c5c4)C(=O)N(C4CCC(=O)NC4=O)C6=O)CC3)nn2)CC1 (stereo partly shown) [Compound 83],41%,10 to 25 nM,
CCn1c2c(c3ccc(OCCCOC4CC5(CCN(c6ccc(C(=O)N[C@H]7CC[C@H](Oc8ccc(C#N)c(Cl)c8)CC7)nn6)CC5)C4)cc31)C(=O)N(C1CCC(=O)NC1=O)C2=O (stereo partly shown) [Compound 172],,25 to 100 nM,
CCn1c2c(c3ccc(OCCN4CCN(c5ccc(C(=O)N[C@H]6CC[C@H](Oc7ccc(C#N)c(Cl)c7)CC6)cn5)CC4)cc31)C(=O)N(C1CCC(=O)NC1=O)C2=O (stereo partly shown) [Compound 31],47%,25 to 100 nM,
CCn1c2c(c3ccc(OCCOC4CC5(CCN(c6ccc(C(=O)N[C@H]7CC[C@H](Oc8ccc(C#N)c(Cl)c8)CC7)nn6)C5)C4)cc31)C(=O)N(C1CCC(=O)NC1=O)C2=O (stereo partly shown) [Compound 162],29%,25 to 100 nM,
CCn1c2c(c3ccc(OCCCN4C5CCC4CN(c4ccc(C(=O)N[C@H]6CC[C@H](Oc7ccc(C#N)c(Cl)c7)CC6)nn4)C5)cc31)C(=O)N(C1CCC(=O)NC1=O)C2=O (stereo partly shown) [Compound 47],19%,10 to 25 nM,
CC1(C)[C@H](NC(=O)c2ccc(N3CCN(CCOc4ccc5c6c(sc5c4)C(=O)N(C4CCC(=O)NC4=O)C6=O)CC3)cn2)C(C)(C)[C@H]1Oc1ccc(C#N)c(Cl)c1 (stereo partly shown) [Compound 7],,,"Androgen Receptor Remaining (%) (LNCaP.FGC cells, 100 nM, 24 hr, normalized to GAPDH, untreated cells = 100%): 45%; DC50 [4]: 25 to 100 nM"
